Measured values taken from patent US20230024537A1, “Oral Delivery Compositions for Obesity Management” (BOARD OF REGENTS, THE UNIVERSITY OF TEXAS SYSTEM, priority 2021, published 2023).

Experiments:
[1] = Beta glucan gel mediated oral delivery of nutraceuticals (absorption, pharmacokinetics)
Description: Beta-glucan compositions can be used to delivery other nutrients or therapeutic molecule via oral delivery.

[2] = tested on: high fat diet induced rat model; assay: Oral delivery of anti-leptin antibody or leptin protein in high fat diet induced rat model; assay type: in vivo
Procedure: The inventors have developed an oral antibody or protein delivery platform and investigated feasibility using an anti-leptin antibody. […] The oral delivery vehicle facilitated enhancement of intestinal penetration of the antibody as well as protect the antibody from being damaged within the stomach in presence of acidic gastric juice. […] An oral dose of 5-10 μg leptin protein resulted 10-20% body weight reduction compared to the untreated high fat diet rat. […] Treated groups show less cholesterol contents in their blood which is within the normal range in opposed to the untreated animal that are observed with high cholesterol content.

high fat diet rat = assay: Rat animal model, high fat diet with CAGE-Leptin or BG-leptin treatment (body weight, food consumption); assay type: in vivo
Procedure: Materials and Methods. Rat Animal Model. Rats are fed normal diet for 5 weeks, both male and female, body weight and food consumption is measured. Animals are fed a high fat diet for 5 weeks, body weight and food consumption is measured. Animals are fed high fat diet with CAGE-Leptin treatment for 5 weeks, body weight and food consumption is measured. Animals are fed high fat diet with BG-leptin treatment for 5 weeks, body weight and food consumption is measured.
Four groups of male were getting high fat diet for 2 weeks and then we start administer with cage, cage-leptin ab and leptin ab treatments (FIG. 3).

Compound: O=C(O)CCCCC1CCSS1 (racemic) [DL-thioctic acid]
- enhancement of pharmacokinetics ([1]; Beta glucan mediated oral delivery, compared with free oral delivery, thioctic acid tested in rat): 10-20 folds

Compound: CC/C=C\C/C=C\C/C=C\C/C=C\C/C=C\C/C=C\CCC(=O)O [Docosahexaenoic acid, docosahexaenoic acid]
- enhancement of pharmacokinetics ([1]; rat, in vivo, po): 10 folds

Compound: O=S(=O)([O-])[O-].[Fe+2] [iron sulfate]
- constipation problem associated with oral delivery ([1]; enhanced absorption by beta glucan): mitigation of constipation problem
- absorption enhanced by Beta glucan ([1]; with Beta glucan, given orally): 60%

Compound: leptin protein: Leptin protein (GenBank NP-000221), protein hormone of approx. 16 kDa formed by 146 amino acids
- body weight reduction compared to untreated high fat diet rat ([2]; oral dose of 5-10 μg): 10-20%
- production of anti leptin antibody ([2]; oral leptin protein): results in production anti leptin antibody
- fat content in body ([2]; treated high fat diet rat): significantly less fat content
- food consumption, male rat (high fat diet rat; male rats on high fat diet, versus high fat and regular diet control groups, FIG. 4 and FIG. 5): lower amount of food
- body weight gain, male rat (high fat diet rat; male rats, FIG. 2): lower than regular and high fat diet male control group

Compound: vitamin B12
- enhancement of pharmacokinetics ([1]; rat, in vivo, po): 15-20 folds
